{"source": "patent US20210379010A1", "about": "“COMPOSITIONS COMPRISING CANNABINOIDS FOR USE IN THE TREATMENT OF BIOFILM AND CONDITIONS ASSOCIATED WITH MICROBIAL, FUNGAL, BACTERIAL INFECTIONS” (Yissum Research Development Company of The Hebrew …, priority 2018, published 2021)", "key": {"[1]": {"test_system": "fluconazole resistant C. albicans strain DSY551 biofilm", "conditions": "Table 2"}, "[2]": {"test_system": "fluconazole resistant C. albicans strain DSY735 biofilm", "conditions": "Table 2"}, "[3]": {"conditions": "MBIC of fluconazole in combination with ARAS"}}, "data": [{"compound": "OC(Cn1cncn1)(Cn1cncn1)c1ccc(F)cc1F", "note": "[FLU, fluconazole, reference compound]", "values": [{"measurement": "FBIC FLU", "setting": "[1]; [3]", "value": 2, "unit": "µg/mL"}, {"measurement": "MBIC FLU", "setting": "[1]; fluconazole alone", "value": ">64", "unit": "µg/mL"}, {"measurement": "FBIC FLU", "setting": "[2]; [3]", "value": 4, "unit": "µg/mL"}, {"measurement": "MBIC FLU", "setting": "[2]; fluconazole alone", "value": ">64", "unit": "µg/mL"}]}]}
